Test results reported in the NIST ThermoML archive (doi:10.1021/je050538q).

Tests used:
[1] = Liquid
[2] = refractive index (Na D-line) (dimensionless); settings: 298.15 K; 101.33 kPa; Liquid
[3] = xn = mol fraction of the nth substance listed; settings: 298.15 K, 101 kPa, Liquid
[4] = refractive index (Na D-line) (dimensionless); xn = mol fraction of the nth substance listed; settings: 298.15 K, 101 kPa, Liquid

CCC(C)(C)O [2-methylbutan-2-ol]
[1], 298.15 K, 101 kPa
Settings	mass density [kg/m3]	viscosity [mPa·s]
–	804.98	3.645

Settings	viscosity [mPa·s]
[1], 303.15 K, 101.33 kPa, Capillary tube (Ostwald / Ubbelohde) method	2.81

Settings	refractive index
[2]	1.4025

CCC(C)(C)O [2-methylbutan-2-ol] + CC(=O)N(C)C
Settings	mass density, [3] [kg/m3]	refractive index, [4]	viscosity, [3] [mPa·s]
x2 = 0	804.98	1.4025	3.645
x2 = 0.0112	806.65	1.4031	3.6
x2 = 0.0284	809.1	1.404	3.533
x2 = 0.0423	810.93	1.4046	3.48
x2 = 0.0681	814.29	1.4058	3.381
x2 = 0.1023	818.47	1.4072	3.254
x2 = 0.1613	825.31	1.4095	3.041
x2 = 0.2112	830.81	1.4113	2.87
x2 = 0.253	835.39	1.4128	2.731
x2 = 0.2912	839.58	1.4141	2.608
x2 = 0.3366	844.6	1.4156	2.467
x2 = 0.3844	850.11	1.4171	2.325
x2 = 0.4203	854.29	1.4182	2.221
x2 = 0.4743	860.87	1.4198	2.071
x2 = 0.5864	875.18	1.423	1.78
x2 = 0.6721	886.7	1.4254	1.578
x2 = 0.7474	897.47	1.4276	1.413
x2 = 0.8321	910.06	1.4302	1.242
x2 = 0.9168	923.22	1.4329	1.086
x2 = 0.954	929.18	1.4341	1.021

CCC(C)(C)O [2-methylbutan-2-ol] + CCOC(C)=O
Settings	mass density, [3] [kg/m3]	refractive index, [4]	viscosity, [3] [mPa·s]
x1 = 0.0279	891.15	1.3711	0.464
x1 = 0.0573	887.59	1.3723	0.508
x1 = 0.096	883.06	1.3739	0.567
x1 = 0.1672	874.97	1.3767	0.691
x1 = 0.2475	866.39	1.3798	0.85
x1 = 0.3322	857.83	1.383	1.041
x1 = 0.4168	849.81	1.3861	1.261
x1 = 0.4994	842.59	1.3891	1.503
x1 = 0.5831	835.67	1.3919	1.776
x1 = 0.6658	829.16	1.3946	2.078
x1 = 0.7486	822.86	1.397	2.412
x1 = 0.8336	816.62	1.3993	2.791
x1 = 0.9149	810.81	1.4011	3.188
x1 = 0.9445	808.73	1.4017	3.344
x1 = 0.9712	806.91	1.4021	3.486
x1 = 1	804.98	1.4025	3.645

CC(=O)N(C)C [N,N-dimethylethanamide]
[1], 298.15 K, 101 kPa
Settings	mass density [kg/m3]	viscosity [mPa·s]
–	936.7	0.945

Settings	refractive index
[2]	1.4357

CC(=O)N(C)C [N,N-dimethylethanamide] + CCC(C)(C)O
x1 = 1
Settings	mass density [kg/m3]	refractive index	viscosity [mPa·s]
[3]	936.7	–	0.945
[4]	–	1.4357	–

CC(=O)N(C)C [N,N-dimethylethanamide] + CCOC(C)=O
Settings	mass density, [3] [kg/m3]	refractive index, [4]	viscosity, [3] [mPa·s]
x1 = 0.0392	896.84	1.3731	0.442
x1 = 0.0791	898.95	1.3763	0.458
x1 = 0.156	902.75	1.3824	0.49
x1 = 0.2331	906.43	1.3883	0.523
x1 = 0.3109	909.97	1.3942	0.558
x1 = 0.3875	913.34	1.3999	0.595
x1 = 0.4646	916.63	1.4054	0.634
x1 = 0.541	919.8	1.4106	0.674
x1 = 0.6137	922.68	1.4153	0.713
x1 = 0.6931	925.71	1.4201	0.757
x1 = 0.7718	928.62	1.4246	0.803
x1 = 0.8145	930.15	1.4269	0.828
x1 = 0.8896	932.81	1.4307	0.874
x1 = 0.9558	935.14	1.4338	0.916
x1 = 1	936.7	1.4357	0.945

CCOC(C)=O [ethyl acetate]
[1], 298.15 K, 101 kPa
Settings	mass density [kg/m3]	viscosity [mPa·s]
–	894.6	0.426

Settings	refractive index
[2]	1.3699

CCOC(C)=O [ethyl acetate] + CC(=O)N(C)C
x2 = 0
Settings	mass density [kg/m3]	refractive index	viscosity [mPa·s]
[3]	894.6	–	0.426
[4]	–	1.3699	–

CCOC(C)=O [ethyl acetate] + CCC(C)(C)O
x2 = 0
Settings	mass density [kg/m3]	refractive index	viscosity [mPa·s]
[3]	894.6	–	0.426
[4]	–	1.3699	–
